What was measured:
Assay in all cases: Bliss excess, mean over the matrix (fraction); higher = more synergy
[1] = system: A549 (Lung Adenocarcinoma)
Outline: (§1)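 Bliss excess equals the observed combination effect minus the expected value EA + EB − EA·EB, where EA and EB are the effects of each agent alone. Combination Emax is the second-highest inhibition within the matrix. Inhibition was scaled from CellTiter-Glo 2.0 luminescence, with 0 set by vehicle wells and 1 by blank wells, after 72 hours of two-drug dosing of cells plated in 1536-well plates.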

[2] = system: BICR22 (Oral Cavity Carcinoma)
Outline: as §1

CAS-1 (Glioblastoma) = system: CAS-1 (Glioblastoma)
Outline: as §1

[3] = system: CCK-81 (Colorectal Carcinoma)
Outline: as §1

[4] = system: COLO-320-HSR (Colorectal Carcinoma)
Outline: as §1

[5] = system: ECC10 (Gastric Carcinoma)
Outline: as §1

FU97 (Gastric Carcinoma) = system: FU97 (Gastric Carcinoma)
Outline: as §1

Hs-445 (Non-Cancerous) = system: Hs-445 (Non-Cancerous)
Outline: as §1

[6] = system: KARPAS-422 (B-Cell Non-Hodgkin's Lymphoma)
Outline: as §1

[7] = system: MDST8 (Colorectal Carcinoma)
Outline: as §1

[8] = system: NCI-H1693 (Lung Adenocarcinoma)
Outline: as §1

[9] = system: NCI-H2141 (Small Cell Lung Carcinoma)
Outline: as §1

NCI-H2591 (Mesothelioma) = system: NCI-H2591 (Mesothelioma)
Outline: as §1

[10] = system: ONS-76 (Other Solid Carcinomas)
Outline: as §1

[11] = system: OS-RC-2 (Kidney Carcinoma)
Outline: as §1

PA-1 (Ovarian Carcinoma) = system: PA-1 (Ovarian Carcinoma)
Outline: as §1

[12] = system: SISO (Cervical Carcinoma)
Outline: as §1

[13] = system: SK-MG-1 (Low Grade Glioma)
Outline: as §1

[14] = system: TT2609-C02 (Thyroid Gland Carcinoma)
Outline: as §1

U-2-OS (Osteosarcoma) = system: U-2-OS (Osteosarcoma)
Outline: as §1

Row | SMILES | Bliss excess [1] | Bliss excess [2] | Bliss excess (CAS-1 (Glioblastoma)) | Bliss excess [3] | Bliss excess [4] | Bliss excess [5] | Bliss excess (FU97 (Gastric Carcinoma)) | Bliss excess (Hs-445 (Non-Cancerous)) | Bliss excess [6] | Bliss excess [7] | Bliss excess [8] | Bliss excess [9] | Bliss excess (NCI-H2591 (Mesothelioma)) | Bliss excess [10] | Bliss excess [11] | Bliss excess (PA-1 (Ovarian Carcinoma)) | Bliss excess [12] | Bliss excess [13] | Bliss excess [14] | Bliss excess (U-2-OS (Osteosarcoma))
1 | COc1nnc2ccc(N3CCC(c4ccc(OCCN5CCN(C)C(=O)[C@H]5C)cc4)CC3)nn12 [AZD5153] + C=CCn1c(=O)c2cnc(Nc3ccc(N4CCN(C)CC4)cc3)nc2n1-c1cccc(C(C)(C)O)n1 [AZD1775] (first compound max 1 µM, partner max 1 µM) | -0.0902 | -0.0972 | -0.0825 | -0.0558 | -0.0801 | -0.0116 | 0.0072 | -0.192 | -0.108 | -0.0455 | -0.0888 | -0.021 | 0.0145 | -0.0505 | -0.0324 | -0.043 | -0.0346 | -0.0823 | -0.0508 | -0.0304
2 | CC1(C)CCC(CN2CCN(c3ccc(C(=O)NS(=O)(=O)c4ccc(NCC5CCOCC5)c([N+](=O)[O-])c4)c(Oc4cnc5[nH]ccc5c4)c3)CC2)=C(c2ccc(Cl)cc2)C1 [Venetoclax] + C1CN(CCC1(C(=O)N[C@@H](CCO)C2=CC=C(C=C2)Cl)N)C3=NC=NC4=C3C=CN4 [Capivasertib] (first compound max 1 µM, 7x7, partner max 3 µM) | -0.059 | -0.0249 | -0.0653 | -0.039 | -0.0006 | -0.0202 | -0.0295 | 0.0344 | 0.0459 | -0.0389 | -0.0333 | -0.0534 | -0.0453 | -0.114 | -0.0442 | -0.0541 | -0.0557 | -0.0649 | -0.0391 | -0.0414
3 | CC1(C)CCC(CN2CCN(c3ccc(C(=O)NS(=O)(=O)c4ccc(NCC5CCOCC5)c([N+](=O)[O-])c4)c(Oc4cnc5[nH]ccc5c4)c3)CC2)=C(c2ccc(Cl)cc2)C1 [Venetoclax] + C[C@@H]1COCCN1C2=NC(=NC(=C2)C3(CC3)[S@](=N)(=O)C)C4=C5C=CNC5=NC=C4 [AZD6738] (first compound max 1 µM, 7x7, partner max 10 µM) | -0.0465 | -0.0511 | -0.0068 | -0.0197 | -0.0076 | -0.0132 | -0.0455 | 0.0577 | -0.0055 | -0.0025 | -0.0147 | 0.0202 | -0.0595 | -0.0531 | -0.0804 | -0.006 | -0.0309 | -0.0553 | -0.0293 | -0.0469
4 | C[C@@H](c1ccc2nccn2c1)n1nnc2ncc(-c3cnn(C)c3)nc21 [Savolitinib] + Cc1c2c(nn1C)CSCc1cc(n(C)n1)CSc1cc(c3ccccc3c1)OCCCc1c(C(=O)O)n(C)c3c-2c(Cl)ccc13 [AZD5991] (first compound max 1 µM, 7x7, partner max 1 µM) | -0.0279 | -0.0321 | -0.0584 | -0.0402 | -0.0464 | 0.0229 | -0.0118 | -0.0407 | -0.0462 | -0.0413 | -0.0684 | -0.0107 | -0.0549 | -0.0219 | -0.0561 | -0.0266 | -0.0596 | -0.0648 | -0.0947 | -0.0271
5 | CCN(CCO)CCCOc1ccc2c(Nc3cc(CC(=O)Nc4cccc(F)c4)[nH]n3)ncnc2c1 [AZD2811] + O=C(c1cc(Cc2n[nH]c(=O)c3ccccc23)ccc1F)N1CCN(C(=O)C2CC2)CC1 [Olaparib] (first compound max 1 µM, 7x7, partner max 10 µM) | -0.0061 | -0.0861 | -0.0608 | 0.032 | -0.0179 | -0.107 | -0.0269 | 0.0459 | 0.0267 | 0.0271 | 0.007 | -0.0557 | -0.0332 | -0.0103 | -0.0261 | 0.0873 | 0.0951 | 0.0331 | 0.0022 | 0.0112
6 | COc1cccc(OCCCN)c1-c1cc(Nc2cnc(C#N)cn2)n[nH]1 [Prexasertib] + CCc1c2c(nc3ccc(O)cc13)-c1cc3c(c(=O)n1C2)COC(=O)[C@]3(O)CC [SN-38] (first compound max 1 µM, 7x7, partner max 0.3 µM) | -0.0361 | -0.0684 | 0.0383 | -0.0968 | 0.115 | 0.0145 | -0.032 | -0.0189 | 0.0037 | -0.1 | 0.0166 | 0.0455 | -0.0353 | -0.0961 | -0.0392 | -0.0364 | 0.0277 | 0.0719 | -0.0467 | -0.0551
7 | CN(C)CCCOc1ccc(-c2ccc3ncc4c(c3c2)n(C2CCOCC2)c(=O)n4C)cn1 [AZD0156] + C[C@@H]1COCCN1C2=NC(=NC(=C2)C3(CC3)[S@](=N)(=O)C)C4=C5C=CNC5=NC=C4 [AZD6738] (first compound max 1 µM, 7x7, partner max 10 µM) | -0.0652 | -0.0626 | -0.0046 | -0.0161 | -0.0146 | -0.0104 | -0.0353 | -0.0409 | -0.0444 | 0.0296 | -0.0424 | -0.0766 | -0.0461 | 0.0096 | -0.0419 | -0.0238 | 0.0119 | 0.0249 | -0.0067 | 0.0445
8 | COc1cccc(OCCCN)c1-c1cc(Nc2cnc(C#N)cn2)n[nH]1 [Prexasertib] + C[C@@H]1COCCN1C2=NC(=NC(=C2)C3(CC3)[S@](=N)(=O)C)C4=C5C=CNC5=NC=C4 [AZD6738] (first compound max 1 µM, 7x7, partner max 10 µM) | 0.0241 | -0.0153 | -0.0095 | -0.0277 | -0.0406 | 0.0929 | -0.0427 | -0.0661 | -0.0734 | -0.0209 | 0.0816 | -0.047 | 0.0187 | -0.0803 | 0.0743 | -0.0438 | 0.0309 | -0.0012 | -0.0002 | -0.0426
9 | CC1(C)CCC(CN2CCN(c3ccc(C(=O)NS(=O)(=O)c4ccc(NCC5CCOCC5)c([N+](=O)[O-])c4)c(Oc4cnc5[nH]ccc5c4)c3)CC2)=C(c2ccc(Cl)cc2)C1 [Venetoclax] + Cn1cnc2c(F)c(Nc3ccc(Br)cc3Cl)c(C(=O)NOCCO)cc21 [Selumetinib] (first compound max 1 µM, 7x7, partner max 3 µM) | -0.0401 | -0.0691 | -0.035 | 0.0338 | -0.0062 | 0.0364 | -0.0378 | 0.0401 | -0.0238 | -0.0579 | -0.0396 | -0.0303 | -0.0169 | -0.141 | -0.101 | -0.0117 | -0.0162 | -0.0062 | -0.0518 | -0.0309
10 | Cc1c2c(nn1C)CSCc1cc(n(C)n1)CSc1cc(c3ccccc3c1)OCCCc1c(C(=O)O)n(C)c3c-2c(Cl)ccc13 [AZD5991] + C[C@@H](Nc1cc(F)cc(F)c1)c1cc(C(=O)N(C)C)cc2c(=O)cc(N3CCOCC3)oc12 [AZD8186] (first compound max 1 µM, 7x7, partner max 3 µM) | 0.01 | -0.0014 | -0.0108 | 0.0103 | -0.0004 | 0.024 | 0.0594 | -0.0177 | -0.0143 | -0.0268 | -0.0461 | 0.0257 | -0.0164 | -0.0517 | -0.0226 | 0.049 | -0.0067 | -0.0124 | -0.0192 | -0.0073
11 | CN(C)CCCOc1ccc(-c2ccc3ncc4c(c3c2)n(C2CCOCC2)c(=O)n4C)cn1 [AZD0156] + C=CCn1c(=O)c2cnc(Nc3ccc(N4CCN(C)CC4)cc3)nc2n1-c1cccc(C(C)(C)O)n1 [AZD1775] (first compound max 1 µM, partner max 1 µM) | -0.0807 | -0.0146 | -0.0512 | -0.0039 | -0.0454 | -0.0379 | -0.0101 | 0.0015 | -0.0476 | -0.0358 | -0.0242 | -0.0944 | -0.0306 | -0.0487 | -0.0652 | -0.0546 | -0.0513 | 0.0174 | -0.0119 | 0.0036
12 | CN(CCO)CC[C@H](CSc1ccccc1)Nc1ccc(S(=O)(=O)NC(=O)c2ccc(N3CCC([C@@H](O)c4ccccc4-c4ccc(Cl)cc4)CC3)cc2)cc1S(=O)(=O)C(F)(F)F [AZD4320] + Cn1cnc2c(F)c(Nc3ccc(Br)cc3Cl)c(C(=O)NOCCO)cc21 [Selumetinib] (first compound max 1 µM, 7x7, partner max 3 µM) | 0.0226 | -0.0468 | -0.054 | 0.133 | 0.0102 | 0.027 | -0.011 | 0.0606 | -0.0387 | 0.0763 | 0.0031 | -0.008 | 0.0309 | 0.019 | 0.0178 | 0.144 | 0.0504 | 0.102 | -0.0046 | 0.0351
13 | CC(=O)c1c(C)c2cnc(Nc3ccc(N4CCNCC4)cn3)nc2n(C2CCCC2)c1=O [Palbociclib] + CC1(C)CCC(CN2CCN(c3ccc(C(=O)NS(=O)(=O)c4ccc(NCC5CCOCC5)c([N+](=O)[O-])c4)c(Oc4cnc5[nH]ccc5c4)c3)CC2)=C(c2ccc(Cl)cc2)C1 [Venetoclax] (first compound max 10 µM, 7x7, partner max 1 µM) | -0.0056 | -0.0319 | -0.009 | -0.0761 | -0.0625 | 0.0269 | -0.0281 | 0.119 | 0.0434 | -0.0059 | 0.0079 | -0.0298 | 0.0045 | -0.0115 | -0.0385 | 0.0133 | -0.0384 | -0.0134 | 0.0069 | -0.0275
14 | CC1(C)CCC(CN2CCN(c3ccc(C(=O)NS(=O)(=O)c4ccc(NCC5CCOCC5)c([N+](=O)[O-])c4)c(Oc4cnc5[nH]ccc5c4)c3)CC2)=C(c2ccc(Cl)cc2)C1 [Venetoclax] + COc1cc(Nc2ncc3c(n2)-c2ccc(Cl)cc2C(c2c(F)cccc2OC)=NC3)ccc1C(=O)O [Alisertib] (first compound max 1 µM, 7x7, partner max 10 µM) | -0.0696 | 0.0052 | -0.0341 | 0.0196 | 0.0248 | -0.0281 | -0.0524 | 0.374 | 0.137 | -0.0242 | -0.0862 | 0.171 | -0.066 | -0.0478 | -0.0547 | 0.0385 | 0.0121 | -0.0126 | -0.0069 | 0.0055
